# Laboratory results reported in US20250000987A1, “RETINOIC ACID COMPOUND, PHARMACEUTICAL COMPOSITION THEREOF AND USE THEREOF” (Mastery Biotech CO., LTD., priority 2022, published 2025).
# How the values were obtained:
# [1] = target: SARS-COV-2 PLpro (Severe acute respiratory syndrome coronavirus 2, UniProt P0DTD1); format: biochemical
# [2] = system: SARS-COV-2; conditions: Example 2; 0.35 mg/kg intranasally twice daily, 3-day treatment; versus isotretinoin and liposome-encapsulated isotretinoin; FIG. 3
# From the text: Golden Syrian hamsters (aged 5-6 weeks old and having an average weight of about 100 g) were obtained from the National Laboratory Animal Center (Taipei, Taiwan). The hamsters were housed in an animal room under specific-pathogen-free (SPF) conditions commonly applied in the art. Furthermore, water and feed were provided ad libitum for all the hamsters.
# The hamsters were infected with SARS-COV-2 (obtained from P3 Lab, the Genomics Research Center, Academia Sinica; WuHan wild type) in phosphate buffered saline (PBS) through intranasal inoculation at 1×10^4 plaque-forming units (PFU) on 12:00 PM so as to establish a SARS-COV-2 animal model.
# The infected hamsters obtained as mentioned above were divided into the following four groups (n=5 per group): a control group (abbreviated as “Control”), two comparative groups (respectively abbreviated as “Comparative_1” and “Comparative_2”) and one experimental group (abbreviated as “Experimental_1”). […]
# After the 3-day treatment, the hamsters were sacrificed, and the lungs thereof were collected for live viral load measurement by TCID50 assay in Vero E6 cells. The virus titer was determined in terms of the 50% tissue culture infectious dose (TCID50) using the Reed-Muench method. […]
# The experimental data were analyzed by Tukey's test so as to evaluate the differences between the groups. […]
compound,measurement,setting,value
"CC1=C(/C=C/C(C)=C/C=C/C(C)=C\C(=O)NCCCO[C@@H]2O[C@H](CO)[C@H](O)[C@H](O)[C@H]2O)C(C)(C)CCC1 [Galactose-modified isotretinoin, (2Z,4E,6E,8E)-3,7-dimethyl-N-(3-(((2R,3R,4S,5R,6R)-3,4,5-trihydroxy-6-(hydroxymethyl)tetrahydro-2H-pyran-2-yl)oxy)propyl)-9-(2,6,6-trimethylcyclohex-1-en-1-yl) nona-2,4,6,8-tetraenamide]",Inhibition percentage (%),"[1]; Example 1, 50 μM inhibiting agent, PLpro 0.9 μM, preincubation 30 minutes, 30° C., 300 seconds, mean±standard deviation",34.21 ± 0.17%
same,"inhibiting the enzymatic activity of PLpro, comparison in words","[1]; versus isotretinoin or the individual components, FIG. 2, FIG. 11",more effective than isotretinoin only
same,TCID50 (lung virus titer),[2],significantly lower
